This note sets out measurements from US9481654B2, “Compositions and methods for inhibition of the JAK pathway” (Rigel Pharmaceuticals, Inc., priority 2006, dated 2016).

As a reminder, the IC50 is the concentration that gives 50% inhibition. High values mean weaker potency, low ones greater potency.

What all share (assay type): cell-based
For test [1], the system named is IL-4 stimulated CD23 upregulation in human Ramos B cells (JAK-1/JAK-3, Stat-6). The experiment in a line: Assay for Ramos B-Cell Line Stimulated with IL-4 (CD23 upregulation, FACS). The following applies: Table III Example 3. The gist of the method:
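Log-phase Ramos B cells (5×10^4 per point, RPMI with 5% serum) pre-incubated with compound or DMSO 1 h at 37° C, then stimulated with IL-4 at 50 units/mL final for 20-24 h. CD23 upregulation measured by staining and flow cytometry.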

Test [2] has as its system primary human T-cells (IL-2 induced proliferation, JAK-1/JAK-3, Stat-5). The experiment in a line: Primary Human T-Cell Proliferation Assay Stimulated with IL-2 (CellTiter-Glo). The following applies: Table III Example 4. As to the method:
In this assay, primary human T-cells derived from peripheral blood and pre-activated through stimulation of the T-cell receptor and CD28, proliferate in culture in response to the cytokine Interleukin-2 (IL-2). This proliferative response is dependent on the activation of JAK1 and JAK3 tyrosine kinases, which phosphorylate and activate the transcription factor Stat-5. The primary human T-cells are incubated with the 2,4-pyrimidinediamine compounds in the presence of IL-2 for 72 hours, and at the assay endpoint intracellular ATP concentrations are measured to assess cell viability. A reduction in cell proliferation compared to control conditions is indicative of inhibition of the JAK kinase pathway.
Primary human T-cells derived from peripheral blood and pre-activated through stimulation of the T-cell receptor and CD28 proliferate in vitro in response to the cytokine Interleukin-2 (IL-2). This proliferative response is dependent on the activation of JAK-1 and JAK-3 tyrosine kinases, which phosphorylate and activate the transcription factor Stat-5.
Human primary T cells were prepared as follows. […] The lymphocytes at the serum: ficoll interface were recovered and washed twice with 5 volumes of PBS. […] The primary T-cells were stimulated for 3 to 4 days, then transferred to a fresh flask and maintained in RPMI with 10% FBS and 40 U/mL IL-2.
Primary T-cells were washed twice with PBS to remove the IL-2 and resuspended in Yssel's medium at 2×10^6 cells/mL. 50 μL of cell suspension containing 80 U/mL IL-2 was added to each well of a flat bottom 96 well black plate. For the unstimulated control, IL-2 was omitted from the last column on the plate. […] 50 μL of 2× compound was added per well in duplicate and the cells were allowed to proliferate for 72 hours at 37° C.
Proliferation was measured using CellTiter-Glo® Luminescent Cell Viability Assay (Promega), which determines the number of viable cells in culture based on quantitation of the ATP present, as an indicator of metabolically active cells. The substrate was thawed and allowed to come to room temperature. After mixing the Cell Titer-Glo reagent and diluent together, 100 μL was added to each well. The plates were mixed on an orbital shaker for two minutes to induce lysis and incubated at room temperature for an additional ten minutes to allow the signal to equilibrate.
In general terms: Cellular ATP, detected with luciferase, serves as a proxy for viable cell number.

Test [3] deals with IFNγ induced ICAM-1 (CD54) up-regulation in U937 human monocytic cells (JAK/Stat pathway). The experiment in a line: U937 IFNγ ICAM1 FACS Assay. Particulars: Table III Example 6; 10 ng/mL IFNγ, 18-24 hours. The source says: A549 lung epithelial cells and U937 cells up-regulate ICAM-1 (CD54) surface expression in response to a variety of different stimuli. Therefore, using ICAM-1 expression as readout, test compound effects on different signaling pathways can be assessed in the same cell type. Stimulation with IL-1β through the IL-1β receptor activates the TRAF6/NFκB pathway resulting in up-regulation of ICAM-1. IFNγ induces ICAM-1 up-regulation through activation of the JAK1/JAK2 pathway. The up-regulation of ICAM-1 can be quantified by flow cytometry across a compound dose curve and EC50 values are calculated. Exemplary assays of this type are described in greater detail in Examples 5 and 6. U937 human monocytic cells up-regulate ICAM-1 (CD54) surface expression in response to a variety of different stimuli. Therefore, using ICAM-1 expression as readout, compound effects on different signaling pathways can be assessed in the same cell type. IFNγ up-regulates ICAM-1 through activation of the JAK/Stat pathway. In this example, the up-regulation of ICAM-1 by IFNγ was assessed. […] The cells were then plated at a concentration of 100,000 cells per 160 μL in 96 well flat bottom plates. The test compounds were then diluted as follows: 10 mM test compound was diluted 1:5 in DMSO (3 μL 10 mM test compound in 12 μL DMSO), followed by a 1:3 serial dilution of test compound in DMSO (6 μL test compound serially diluted into 12 μL DMSO to give 3-fold dilutions). […] For control wells, 4 μL of DMSO was diluted into 76 μL 10% RPMI. […] The cells and compounds were then pre-incubated for 30 minutes at 37° C. with 5% CO2. […] The cells were kept under conditions for stimulation for 18-24 hours at 37° C. with 5% CO2. […] Cells were spun down at 1000 rpm for 5 minutes at 4° C., following which the supernatant was removed. […] The cells were then incubated on ice in the dark for 30 minutes. […] After suspension, the cells were centrifuged at 1000 rpm for 5 min at 4° C. […] Detection was performed using a BD LSR I System Flow Cytometer, purchased from BD Biosciences of San Jose, Calif. The live cells were gated for live scatter and the geometric mean of ICAM-APC was measured (Becton-Dickinson CellQuest software version 3.3, Franklin Lakes, N.J.). Both % live cells and ICAM-1 expression was analyzed. The assays for the test compounds were carried out in parallel with a control compound of known activity.

`Cc1ccc(Nc2ncc(C)c(Nc3ccc4c(c3)CN(S(=O)(=O)C3CC3)C4)n2)cc1S(N)(=O)=O` [II-7, N2-(3-Aminosulfonyl-4-methylphenyl)-N4-[(2-cyclopropylsulfonyl)-isoindolin-5-yl]-5-methyl-2,4-pyrimidinediamine]: the figures for the IC50 in test [1], in test [2] and in test [3] were 130 nM, 155 nM and 652 nM, respectively.

Take `COCCCNS(=O)(=O)c1cc(Nc2ncc(C)c(Nc3cccc(CNS(=O)(=O)C4CC4)c3)n2)ccc1C` [Compound I-217, N4-(3-cyclopropylsulfonylaminomethyl)phenyl-N2-[3-(3-methoxypropyl)aminosulfonyl-4-methyl]phenyl-5-methyl-2,4-pyrimidinediamine]: the values for the IC50 in test [1], in test [2] and in test [3] were 80.2 nM, 129 nM and 496 nM, respectively.

As for `NS(=O)(=O)c1cccc(Nc2ncc(F)c(Nc3ccc(CNS(=O)(=O)c4cccs4)cc3)n2)c1` [Compound I-36, N2-(3-aminosulfonyl)phenyl-5-fluoro-N4-[4-(thiophen-2-yl)sulfonylaminomethyl]phenyl-2,4-pyrimidinediamine], the IC50 in test [1] stood at 40.8 nM; in test [2], 63.9 nM; in test [3], 326 nM.

Turning to `Cc1cnc(Nc2ccc(S(=O)(=O)NC(C)C)cc2)nc1Nc1ccc(CNS(=O)(=O)C2CC2)cc1` [Compound I-172, N4-(4-cyclopropylsulfonylaminomethyl)phenyl-N2-(4-isopropylaminosulfonyl)phenyl-5-methyl-2,4-pyrimidinediamine], the IC50 in test [1] stood at 52.1 nM; in test [2], 81 nM; in test [3], 123 nM.

In the case of `Cc1cnc(Nc2ccc(S(N)(=O)=O)cc2)nc1Nc1ccc(CN(C)S(=O)(=O)C2CC2)cc1` [Compound I-127, N2-(4-aminosulfonyl)phenyl-N4-[4-(N-cyclopropylsulfonyl-N-methyl)aminomethyl]phenyl-5-methyl-2,4-pyrimidinediamine], the IC50 stood at 126 nM in test [1], 233 nM in test [2] and 616 nM in test [3].

As to `Cc1ccc(Nc2ncc(F)c(Nc3ccc(CNS(=O)(=O)C4CC4)cc3)n2)cc1S(N)(=O)=O` [Compound I-25, N2-(3-aminosulfonyl-4-methyl)phenyl-N4-(4-cyclopropylsulfonylaminomethyl)phenyl-5-fluoro-2,4-pyrimidinediamine], the IC50 was found to be 69 nM in test [1], 63.9 nM in test [2] and 363 nM in test [3].

For `NS(=O)(=O)c1cccc(Nc2ncc(F)c(Nc3ccc(CNS(=O)(=O)c4cccnc4)cc3)n2)c1` [Compound I-95, N2-(3-aminosulfonyl)phenyl-5-fluoro-N4-[4-(pyrid-3-yl)sulfonylaminomethyl]phenyl-2,4-pyrimidinediamine], the IC50 in test [1] came to 160 nM; in test [2], 286 nM; in test [3], 2690 nM.

Regarding `Cc1cnc(Nc2cccc(S(N)(=O)=O)c2)nc1Nc1ccc(CNS(=O)(=O)c2cccnc2)cc1` [Compound I-100, N2-(3-aminosulfonyl)phenyl-5-methyl-N4-[4-(pyrid-3-yl)sulfonylaminomethyl]phenyl-2,4-pyrimidinediamine], the IC50 in test [1] amounted to 102 nM; in test [2], 153 nM; in test [3], 489 nM.

Regarding `CCCNS(=O)(=O)c1cc(Nc2ncc(C)c(Nc3cccc(CNS(=O)(=O)C4CC4)c3)n2)ccc1C` [Compound I-215, N4-(3-cyclopropylsulfonylaminomethyl)phenyl-5-methyl-N2-(4-methyl-3-propylaminosulfonyl)phenyl-2,4-pyrimidinediamine], the values for the IC50 in test [1], in test [2] and in test [3] were 132 nM, 116 nM and 385 nM, respectively.

Turning to `CCS(=O)(=O)NCCc1ccc(Nc2nc(Nc3ccc(S(N)(=O)=O)cc3)ncc2F)cc1` [Compound I-14, N2-(4-aminosulfonyl)phenyl-N4-[4-(2-ethylsulfonylamino)ethyl]phenyl-5-fluoro-2,4-pyrimidinediamine], the IC50 in test [1] came out at 144 nM; in test [2], 835 nM; in test [3], 5270 nM.

In the case of `NS(=O)(=O)c1ccc(Nc2ncc(F)c(Nc3ccc(CNS(=O)(=O)C4CC4)cc3)n2)cc1` [Compound I-23, N2-(4-aminosulfonyl)phenyl-N4-(4-cyclopropylsulfonylaminomethyl)phenyl-5-fluoro-2,4-pyrimidinediamine], the IC50 in test [1] is 126 nM; in test [2] it was 198 nM; in test [3], 3850 nM.

With `Cc1cnc(Nc2ccc(S(=O)(=O)NC3CCCC3)cc2)nc1Nc1ccc(CNS(=O)(=O)C2CC2)cc1` [Compound I-166, N2-(4-cyclopentylaminosulfonyl)phenyl-N4-(4-cyclopropylsulfonylaminomethyl)phenyl-5-methyl-2,4-pyrimidinediamine], the IC50 in test [1] turned out to be 82.5 nM; in test [2] it was 212 nM; in test [3], 280 nM.

As for `Cc1cnc(Nc2ccc(S(=O)(=O)NCc3ccccc3)cc2)nc1Nc1ccc(CNS(=O)(=O)C2CC2)cc1` [Compound I-153, N2-(4-benzylaminosulfonyl)phenyl-N4-(4-cyclopropylsulfonylaminomethyl)phenyl-5-methyl-2,4-pyrimidinediamine], the results for the IC50 in test [1] and in test [2] were 80 nM and 118 nM, respectively.

As to `Cc1cnc(Nc2ccc(S(=O)(=O)NCc3ccncc3)cc2)nc1Nc1ccc(CNS(=O)(=O)C2CC2)cc1` [Compound I-168, N4-(4-cyclopropylsulfonylaminomethyl)phenyl-5-methyl-N2-[4-(4-pyridylmethyl)aminosulfonyl]phenyl-2,4-pyrimidinediamine], the IC50 was 278 nM in test [1] and 347 nM in test [2].

As for `CCS(=O)(=O)NCc1ccc(Nc2nc(Nc3ccc(C)c(S(N)(=O)=O)c3)ncc2F)cc1Cl` [Compound I-76, N2-(3-aminosulfonyl-4-methyl)phenyl-N4-(3-chloro-4-ethylsulfonylaminomethyl)phenyl-5-fluoro-2,4-pyrimidinediamine], the figures for the IC50 in test [1] and in test [2] were 169 nM and 463 nM, respectively.

Take `Cc1cnc(Nc2cccc(S(=O)(=O)NC3CCN(C)CC3)c2)nc1Nc1ccc(CNS(=O)(=O)C2CC2)cc1` [Compound I-152, N4-(4-cyclopropylsulfonylaminomethyl)phenyl-5-methyl-N2-[3-(1-methylpiperidin-4-yl)aminosulfonyl]phenyl-2,4-pyrimidinediamine]: the values for the concentration for half-maximal inhibition (IC50) in test [1] and in test [2] were 166 nM and 717 nM, respectively.

`Cc1cnc(Nc2cccc(S(=O)(=O)Nc3ccccc3)c2)nc1Nc1cccc(CNS(=O)(=O)C2CC2)c1` [Compound I-156, N4-(3-cyclopropylsulfonylaminomethyl)phenyl-5-methyl-N2-(3-phenylaminosulfonyl)phenyl-2,4-pyrimidinediamine]: the IC50 worked out at 266 nM in test [1] and 1080 nM in test [2].
